The numbers were not newly measured in US7071337B2, “Benzoimidazole derivatives useful as antiproliferative agents” (Pfizer Inc, priority 2002, dated 2006), which cites them from elsewhere.

Data set [1] concerns transplanted human mammary carcinoma that expresses epidermal growth factor receptor tyrosine kinase (EGFR). To be noted: athymic nude mice.
Data set [2] concerns another carcinoma that does not express the EGF receptor. The following applies: athymic nude mice.

The structures appear in SMILES notation.

`O=CN/C=C/c1cc(O)ccc1O` [erbstatin]: in data set [1], the “growth of transplanted human mammary carcinoma expressing EGFR” value is given as “selectively attenuates the growth”. Moreover, in data set [2], the “growth of carcinoma not expressing the EGF receptor” value was “without effect on the growth”.
